# Source: patent publication US6368831B1, “Treatment of hyperproliferative disorders” (Childrens Hospital Los Angeles, priority 1998, dated 2002)
# What was measured:
# [1] = test system: LAN-6 neuroblastoma cells; assay: DIMSCAN cytotoxicity assay, LAN-6; assay type: cell-based, human; conditions: +144 hours; for cell survival on addition of safingol to the retinoid: retinoid plus safingol 3:1 molar ratio vs retinoid alone
# Description: Cytotoxicity is determined using the DIMSCAN assay system (R. Proffitt et al., Cytometry 24, 204-213 (1996); T. Frgala et al., Proc. AACR, 36, 303 (1995). The system employs digital imaging microscopy to quantify viable cells, which selectively accumulate fluorescein diacetate to become brightly fluorescent. The system is capable of measuring cytotoxicity over a 4-5 log dynamic range by quenching the residual fluorescence of dead and dying cells with eosin Y and quantifying the total fluorescence of viable cells using digital thresholding. Measured fluorescence is directly proportionate to the number of viable cells. […] In brief, 5000 to 10,000 SK-N-RA neuroblastoma cells/well are replicate plated into 60 wells of a 96-well tissue culture plate in 0.1 cc media and allowed to attach overnight. Drug(s) are then added in 0.05 cc media to the final concentrations indicated. There are 12 wells treated per drug concentration. Twelve wells receive drug-vector only to the appropriate final concentration and serve as controls for the plate. Cells are incubated for 96-120 hours at 37° C. in 5% CO2. Fluorescein diacetate is then added to each well in 0.05 cc media to a final concentration of 8 microgram/cc. Cells are incubated for a further 15 minutes at 37° C. and 0.03 cc of 0.5% eosin Y is added to each well. Total fluorescence of viable cells is then measured by digital imaging microscopy.
# (§1) Methods. Cells were added in 100 μL whole medium per well to 96-well microplates for DIMSCAN cytotoxicity assay as previously described. Cell lines used were the neuroblastoma cell lines CHLA-90 and LAN-6. At Time=0, either all-trans-retinoic acid (ATRA), 13-cis-retinoic acid (13-cis-RA) or a combination of retinoid plus safingol at a 3:1 molar ratio were added in 50 μL whole medium. Plates were incubated and assayed for cytotoxicity by DIMSCAN assay at +120 for CHLA-90 cells and+144 hours for LAN-6 cells.
# [2] = test system: CHLA-90 neuroblastoma cells; assay: DIMSCAN cytotoxicity assay, CHLA-90; assay type: cell-based; conditions: for cell survival on addition of safingol to the retinoid: retinoid plus safingol 3:1 molar ratio vs retinoid alone; for Combination Index (C.I.) at LD99: PPMP isomer plus HPR at 1:1 micromolar ratio, +96-120 hours
# Description: (§2) Cytotoxicity is determined using the DIMSCAN assay system (R. Proffitt et al., Cytometry 24, 204-213 (1996); T. Frgala et al., Proc. AACR, 36, 303 (1995). The system employs digital imaging microscopy to quantify viable cells, which selectively accumulate fluorescein diacetate to become brightly fluorescent. The system is capable of measuring cytotoxicity over a 4-5 log dynamic range by quenching the residual fluorescence of dead and dying cells with eosin Y and quantifying the total fluorescence of viable cells using digital thresholding. Measured fluorescence is directly proportionate to the number of viable cells. A comparison of the total fluorescence of a drug-treated cell population to the fluorescence of a similar number of untreated cells yields a survival fraction. In brief, 5000 to 10,000 SK-N-RA neuroblastoma cells/well are replicate plated into 60 wells of a 96-well tissue culture plate in 0.1 cc media and allowed to attach overnight. Drug(s) are then added in 0.05 cc media to the final concentrations indicated. There are 12 wells treated per drug concentration. Twelve wells receive drug-vector only to the appropriate final concentration and serve as controls for the plate. Cells are incubated for 96-120 hours at 37° C. in 5% CO2. Fluorescein diacetate is then added to each well in 0.05 cc media to a final concentration of 8 microgram/cc. Cells are incubated for a further 15 minutes at 37° C. and 0.03 cc of 0.5% eosin Y is added to each well. Total fluorescence of viable cells is then measured by digital imaging microscopy.
# as §1
# Methods. To determine the manner in which 4-HPR or HPR+safingol induced cell death in neuroblastoma cells, morphological evidence of apoptosis and/or necrosis was assessed in CHLA-90 cells in the presence or absence of a specific as inhibitor of apoptosis, the neural cell-penetrant, pan-caspase enzyme inhibitor, BOC-d-fink (Enzyme Systems Products, Livermore, Calif.). […] CHLA-90 cells were plated in duplicate in whole medium in Lab Tek chamber slides (Nunc, Naperville, Ill.), allowed to attach for 24 hours, and then treated in the presence or absence of BOC-d-fink (40 μM) for one hour prior to treatment with HPR (10 μM). Control cells were treated with vehicle solvents of 0. 1% ethanol (4-HPR) and/or 0.2% DMSO (BOC-d-fink). Morphological features of apoptosis (DNA condensation and/or apoptotic bodies) were visualized in undetached cells at +24 or +48 hours using blue nuclear fluorescence induced by the supravital DNA stain Hoechst 33342 (10 μg/ml for 30 mins at 37° C.), while necrotic cells and advanced apoptotic cells were recognized by red fluorescent staining with propidium iodide (0.5 μM/ml). Red fluorescently-staining cells with condensed nuclear remnants were scored as apoptotic cells. For cells assayed at +48 hours, additional BOC-d-fink (40 μM) or appropriate control vehicle was added at +24 hours. Cells were observed using filters appropriate for each dye sequentially on an Olympus Vanox epifluorescence microscope. Mutiple random fields of cells (of ˜100-500 cells each) were counted and photographed for viable cells, apoptotic cells, and necrotic cells. To further examine cells treated with HPR, cytotoxicity assays were performed on CHLA-90 cells pretreated with or without 40 μM BOC-d-fmk for one hour prior to the addition of 4-HPR (3-10 μM) and assayed at +24 hours by DIMSCAN assay to assess the effect of caspase inhibition on viability. […]
# [3] = test system: Neuro2a neuroblastoma cells; conditions: cited from earlier work
# CHLA-90 cells = assay: Flow cytometry sub G0/G1 DNA content, CHLA-90; assay type: cell-based, human; conditions: BOC-d-fmk 40 μM, HPR 10 μM, +24 hours
# [4] = test system: SK-N-RA neuroblastoma cells; assay: DIMSCAN cytotoxicity assay, SK-N-RA; assay type: cell-based; conditions: for Combination Index (C.I.) at LD99: PPMP isomer plus HPR at 1:1 micromolar ratio, +96-120 hours
# Description: as §2
# As reported above, we have succeeded in increasing the cytotoxicity of 4-HPR through inhibition of several ceramide-related pathways. Most of the inhibitors used have been only studied in vitro. […]
# Methods. […] Cytotoxocity is expressed as the fraction of cells surviving (Survival Fraction, S.F.). […] Cytotoxic synergy was analyzed by Combination Index (C.I.) analysis calculated at the dose lethal to 99% of exposed cells (LD99). Statistical analysis of the differences in mean cytotoxicity was evaluated by the unpaired, two-sided Student's t test.
# [5] = Phase I; one hour infusion at 120 mg/m^2; cited from earlier work
# MCF7/GCS cells = assay: DIMSCAN cytotoxicity assay, MCF7/GCS tet OFF vs tet ON; assay type: cell-based, human; conditions: 96 hours, P<0.005 at >6 μM HPR, safingol 0-4 μM
# Source text: We have shown that HPR generates ceramide in neuroblastoma tumor cell lines in a dose- and time-depenent manner (B. Maurer et al., J. Natl. Cancer Inst. (1999)(in press)). Glucosylceramide (GC) is a nontoxic metabolite of ceramide. Ceramide is converted into glucosylceramide by the action of glucosylceramide synthase (GCS). Glucosylceramide synthase (GCS) has been transfected into human MCF7 breast cancer cells in a tetracycline-inducible expression construct in the MCF7/GCS cell line (Y. Liu et al., J. Biol. Chem. 274:1140-46 (1999)). […] We have exposed MCF7/GCS cells to HPR, safingol and HPR+safingol in the absence, and in the presence, of doxycycline.
# Methods. MCF7/GCS cells were plated and incubated in RPMI medium with 10% fetal bovine serum and 200 microgram/ml Hygromycin B (tet OFF) for DIMSCAN cytotoxicity assays as previously described. To increase GCS expression, MCF7/GCS cells were also incubated in the above medium with 3 microgram/ml doxycycline (tet ON) for three days prior to replating them for DIMSCAN cytotoxicity assay. DIMSCAN assays with doxycycline-induced (tet ON) cells also included 3 microgram/ml doxycycline in the medium. Both “tet OFF” and “tet ON” MCF7/GCS cells were exposed to HPR, safingol and HPR+safingol (3:1 molar ratio) for 96 hours and assayed for survival fraction by DIMSCAN as previously described.
compound,measurement,setting,value
"CC1=C(/C=C/C(C)=C/C=C/C(C)=C\C(=O)O)C(C)(C)CCC1 [13-cis-RA, 13-cis-retinoic acid]",cell survival on addition of safingol to the retinoid,[1],significant decrease in the cell survival
same,cell survival on addition of safingol to the retinoid,[2]; +120 hours,significant decrease in the cell survival
"CC1=C(/C=C/C(C)=C/C=C/C(C)=C/C(=O)O)C(C)(C)CCC1 [ATRA, all-trans-retinoic acid]",cell survival on addition of safingol to the retinoid,[1],significant decrease in the cell survival
same,cell survival on addition of safingol to the retinoid,[2]; +120 hours,significant decrease in the cell survival
same,increase in the level of ceramide,[3],1.5 ×
COC(=O)CC(NC(=O)OC(C)(C)C)C(=O)CF (stereo not drawn) [BOC-d-fmk],sub G0/G1 DNA-fragmentation induced by HPR,CHLA-90 cells,abrogated
"CCCCCCCCCCCCCCCC(=O)NC(CN1CCOCC1)C(O)c1ccccc1 [D,L-erythro-PPMP, 1-phenyl-2-palmitoylamino-3-morpholino-1-propanol]",Combination Index (C.I.) at LD99,[2],0.18
same,Combination Index (C.I.) at LD99,[4],< 0.06
"CCCCCCCCCCCCCCCC(=O)NC(CN1CCOCC1)C(O)c1ccccc1 [D,L-threo-PPMP, 1-phenyl-2-palmitoylamino-3-morpholino-1-propanol]",Combination Index (C.I.) at LD99,[2],< 0.09
same,Combination Index (C.I.) at LD99,[4],< 0.01
"CCCCCCCCCCCCC/C=C/[C@@H](O)[C@H](CO)N(C)C [N-DMS, d-erythro-N,N-dimethylsphingosine]",cytotoxicity when added to fenretinide and PPMP,"[4]; 5 μM fenretinide fixed plus 5 μM PPMP fixed plus N-DMS, 20% O2",increased cytotoxicity
"CCCCCCCCCCCCCCC[C@H](O)[C@@H](N)CO [Safingol, (2S,3S)-2-amino-1,3-octadecanediol]",reported toxicities,[5],no reported toxicities
same,serum levels during infusion,[5],3000 nM
same,Survival Fraction,[1]; safingol alone at 4 μM,0.39
same,Survival Fraction,"[2]; safingol alone at 4 μM, +120 hours",0.11
same,"change of cytotoxicity in tet ON (doxycycline, GCS induced) compared to tet OFF cells",MCF7/GCS cells,no significant decrease
